Reference: patent publication US8173428B2, “LNA oligonucleotides and the treatment of cancer” (Santaris Pharma A/S, priority 2004, dated 2012)
Oligonucleotides are written 5' to 3', each unit as a sugar letter and its base; * is a phosphorothioate linkage, no mark a phosphodiester; rarer units and linkages stand in square brackets, end groups in braces. Plain capitals give the bases only. l = locked nucleic acid (LNA); [5mC] = 5-methylcytosine; d = 2'-deoxy (DNA)

Assays:
[1] = test system: mice; experiment: i.v. acute toxicity study in mice; format: in vivo
Description: For SEQ ID NO. 2 the following was found among others in preclinical toxicity studies: […]

[2] = test system: Survivin mRNA; experiment: Tumour analysis: Survivin mRNA after intratumoural injection; format: in vivo, Balb/cA-nu mice; settings: 25 mg/kg intratumoral, 6 times over 2 weeks, sampling 24 hours after last dose, versus saline
Method: Model: PC-3 human prostate cancer cells (ECACC) are mixed with Matrigel and injected s.c. into both flanks of female Balb/cA-nu mice on Day 0.
Administration: Oligonucleotides i.p. (see FIG. 8) or intratumoural (see FIG. 9), Taxol i.v., all according to schedule
Total RNA isolation: Approximately 20 mg tumour tissue was homogenized in 400 μl RTL buffer (Qiagen) supplemented with 1% mercaptoethanol. Total RNA was isolated using RNeasy mini kit (Qiagen) according to the manufacture's instructions.
cDNA synthesis: First strand synthesis was performed using OmniScript Reverse Transcriptase kit according to the manufacturer's instructions (Qiagen). […] Protein levels were analysed on individual tumours by western blotting (see FIG. 9). Real time PCR analysis: To determine the relative Survivin mRNA level treated and untreated tumours, the generated cDNA was used in quantitative PCR analysis using an iCycler from BioRad. The cDNA was diluted 5-fold and 8 μl was mixed with 52 μl Taqman probe master mix containing 30 μl Platinum Quantitative PCR SuperMix UDG 2×PCR master mix (Invitrogen), 3 μl 20× Taqman probe and primer mix (forward primer: 5′-[…]-3′ (SEQ ID NO. 29), final 0.9 μM. Reverse primer: 5′-[…]-3′ (SEQ ID NO. 30), final 0.6 μM and taqman probe: FAM-5′-[…]-TAMRA-3′ (SEQ ID NO. 31), final 0.1 μM) and 19 μl H2O. […]

[3] = test system: HeLa cells; experiment: Annexin V-FITC/PI flow cytometry analysis; format: cell-based, human; settings: 5 nM or 25 nM
Method: Culturing of cells: 15PC3 was cultured in DMEM (Sigma) containing 10% fetal bovine serum, Glutamax I and gentamicin at 37° C., 95% humidity and 5% CO2. The cervical carcinoma cell line HeLa were cultured in MEM (Sigma) containing 10% fetal bovine serum, Glutamax I and gentamicin at 37° C., 95% humidity and 5% CO2. When reaching 60-70% confluency, the cells were transfected using Lipofectamine 2000 (5 μg/ml).
0.4×10^6 HeLa cells were seeded in T25 flasks one day prior to transfection. On the day of transfection, the cells were washed once in 37° C. OptiMEM followed by addition of 2.8 ml OptiMEM containing 5 μg/ml Lipofectamine-2000 (In vitrogen). Cells were incubated for 7 min before adding 700 μl oligonucleotides diluted in OptiMEM to a final concentration of 5 nM or 25 nM, Mock transfected cells served as control. After 4 hours of treatment cells were washed in OptiMEM and 3 ml culture medium was added. Following oligonucleotide treatment cells were allowed to recover for 48 hours before they were harvested by scraping and washed twice in PBS. 0.2×10^6 cells were incubated with 5 μl Annexin V-FITC and 10 μl propidium iodide (PI-10 mg/ml) and incubated for 15 min at room temperature in the dark. […] Moreover, TRAIL (Apo2L) induced HeLA cells (0.5 μg/ml) were used as positive control. (See FIG. 4)

Substance: 5′-^MeCsTs^MeCsAsastscscsastsgsgs^MeCsAsGsc-3′ (l[5mC]*lT*l[5mC]*lA*dA*dT*dC*dC*dA*dT*dG*dG*l[5mC]*lA*lG*dC) [SEQ ID NO. 2]
- maximum non-lethal dose [1]: 1000 mg/kg
- Survivin mRNA level in tumours [2]: reduced levels of both mRNA and Survivin protein
- Induction of early and late apoptosis (Annexin V-FITC/PI staining) [3]: dose dependent induction of early and late apoptosis
